Measured values from patent US20140228349A1, “5,7-SUBSTITUTED-IMIDAZO[1,2-C]PYRIMIDINES” (Array BioPharma Inc., priority 2011, published 2014).

Experiments:
Assay type in all cases: biochemical
[1] = molecular target: T1, Human Tyk2 kinase domain (Homo sapiens, UniProt P29597); assay: Tyk2 Inhibition Assay (Omnia kinase fluorescence peptide substrate); conditions: averaged IC50 ranges; 10 μM (Km app) or 1 mM ATP, 2 nM Tyk2
T1 construct: comprising amino acids 886 to 1187; His10 (10 histidine residues) (C, cleaved yes); made in house
T1 sequence (P29597 886-1187): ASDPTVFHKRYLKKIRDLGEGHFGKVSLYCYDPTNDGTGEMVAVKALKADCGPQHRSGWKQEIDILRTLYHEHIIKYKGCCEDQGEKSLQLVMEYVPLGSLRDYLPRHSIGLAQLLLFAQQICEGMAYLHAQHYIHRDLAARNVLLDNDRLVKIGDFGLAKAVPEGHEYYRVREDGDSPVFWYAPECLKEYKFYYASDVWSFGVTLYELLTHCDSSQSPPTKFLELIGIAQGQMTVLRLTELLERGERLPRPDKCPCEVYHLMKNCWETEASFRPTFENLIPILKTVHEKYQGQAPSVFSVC
Text: (§1) The assays described in Examples A, B, C and D for the determination of Tyk2, JAK1, JAK2 and JAK3 kinase activity, respectively, utilized the Omnia® Kinase fluorescence peptide substrate-based technology (Invitrogen). The specific components of the assay mixture are described in Examples A, B, C and D. In these assays, Mg^2+ is chelated upon phosphorylation of the Omnia peptide by the kinase to form a bridge between the chelation-enhanced fluorophore Sox and the phosphate, resulting in an increase in fluorescence emission at 485 nm when excited at […]. The reactions were therefore read at excitation 360 nm and emission was measured at 485 nm every 50 seconds for 45 minutes using a PerkinElmer EnVision Multilabel Plate Reader.
(§2) The final buffer conditions for Tyk2, JAK1, JAK2, and JAK3 assays were as follows: 25 mM HEPES, pH 7.4, 10 mM MgCl2, 0.01% Triton X-100 and 1 mM DTT.
(§3) Compounds were prepared at 50× the final concentration in DMSO by conducting 3-fold serial dilutions from a 500-μM intermediate dilution to give a 10-point dosing curve having a high dose of 10 μM. Two-μL aliquots of these were transferred to a fresh plate for a ten-fold intermediate dilution with assay buffer. Five-μL aliquots of the diluted compounds were then transferred to 20-μL of assay mixtures described in Examples A, B, C and D for a final concentration of DMSO of 2%. A standard or reference compound was typically included on each assay plate to validate that plate. For each plate, percent of control (POC) values were calculated for each well according to the following equation: […]
(§4) IC50's were estimated from the POC's using a standard 4-parameter logistic model:
(§5) The IC50 is defined as the concentration of inhibitor at which the POC equals 50 for the fitted curve.
Compounds of Formula I were screened for their ability to inhibit Tyk2 using the general enzyme inhibition assay method, in which the assay mixture contained 10 μM (Km app) or 1 mM ATP, 8 μM Omnia® Y12 peptide (Catalog #IVGN KPZ3121C; Invitrogen Corporation, Carlsbad, Calif.) and 2 nM Tyk2 in a total volume of 20 μL. Human Tyk2 kinase domain, comprising amino acids 886 to 1187 with 10 additional histidine residues (histidine tag) on the carboxy terminus, was expressed and purified from bacculovirus in-house at Array BioPharma Inc. (Boulder, Colo.). The histidine tag was cleaved after purification using standard conditions.

[2] = molecular target: T2, JAK1 (Homo sapiens, UniProt P23458); assay: JAK1 Inhibition Assay (Omnia kinase fluorescence peptide substrate); conditions: averaged IC50 ranges; 40 μM (Km app) or 1 mM ATP, 15 nM JAK1
T2 construct: purchased Invitrogen Corporation, Carlsbad, Calif; IVGN PV4775
T2 sequence (P23458 whole entry): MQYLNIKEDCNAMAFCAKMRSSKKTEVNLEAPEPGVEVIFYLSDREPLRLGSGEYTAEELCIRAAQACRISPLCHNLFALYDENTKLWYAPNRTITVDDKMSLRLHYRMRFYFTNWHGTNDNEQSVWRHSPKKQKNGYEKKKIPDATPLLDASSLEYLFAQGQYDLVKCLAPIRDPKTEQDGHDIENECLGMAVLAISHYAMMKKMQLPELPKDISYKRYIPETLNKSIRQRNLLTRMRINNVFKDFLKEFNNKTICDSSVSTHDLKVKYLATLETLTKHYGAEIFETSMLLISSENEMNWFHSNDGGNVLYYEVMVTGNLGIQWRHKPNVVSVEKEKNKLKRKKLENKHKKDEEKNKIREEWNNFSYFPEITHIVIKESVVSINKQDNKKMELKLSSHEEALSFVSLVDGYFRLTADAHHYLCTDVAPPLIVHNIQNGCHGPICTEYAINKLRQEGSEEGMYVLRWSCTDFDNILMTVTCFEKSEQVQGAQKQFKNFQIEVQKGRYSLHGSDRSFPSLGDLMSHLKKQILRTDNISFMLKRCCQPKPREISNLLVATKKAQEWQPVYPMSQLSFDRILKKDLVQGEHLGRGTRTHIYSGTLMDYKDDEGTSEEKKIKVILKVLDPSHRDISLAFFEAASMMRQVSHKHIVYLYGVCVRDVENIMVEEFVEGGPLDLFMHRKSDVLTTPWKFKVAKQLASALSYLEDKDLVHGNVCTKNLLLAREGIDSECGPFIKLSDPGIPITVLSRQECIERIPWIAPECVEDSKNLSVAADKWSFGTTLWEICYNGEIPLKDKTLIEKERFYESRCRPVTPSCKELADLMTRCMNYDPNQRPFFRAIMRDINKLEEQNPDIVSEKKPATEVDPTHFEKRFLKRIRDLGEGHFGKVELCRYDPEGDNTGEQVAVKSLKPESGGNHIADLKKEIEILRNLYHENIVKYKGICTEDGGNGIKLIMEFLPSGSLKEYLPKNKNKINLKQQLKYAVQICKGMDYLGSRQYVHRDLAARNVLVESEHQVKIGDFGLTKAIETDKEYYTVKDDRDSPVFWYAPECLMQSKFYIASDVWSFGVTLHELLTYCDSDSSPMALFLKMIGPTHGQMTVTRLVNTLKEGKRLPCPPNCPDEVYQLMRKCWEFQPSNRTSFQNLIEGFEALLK
Text: as §1, §2, §3, §4, §5
Compounds of Formula I were screened for their ability to inhibit JAK1 using the general enzyme inhibition assay method, in which the assay mixture contained 40 μM (Km app) or 1 mM ATP, 8 μM Omnia® Y12 peptide (Catalog #IVGN KPZ3121C; Invitrogen Corporation, Carlsbad, Calif.) and 15 nM JAK1 in a total volume of 20 μL. JAK1 was purchased from Invitrogen Corporation, Carlsbad, Calif. (catalog #IVGN PV4775).

[3] = molecular target: T3, JAK2 (Homo sapiens, UniProt O60674); assay: JAK2 Inhibition Assay (Omnia kinase fluorescence peptide substrate); conditions: averaged IC50 ranges; 25 μM (Km app) or 1 mM ATP, 5 nM JAK2
T3 construct: purchased Invitrogen Corporation, Carlsbad, Calif; IVGN PV4288
T3 sequence (O60674 whole entry): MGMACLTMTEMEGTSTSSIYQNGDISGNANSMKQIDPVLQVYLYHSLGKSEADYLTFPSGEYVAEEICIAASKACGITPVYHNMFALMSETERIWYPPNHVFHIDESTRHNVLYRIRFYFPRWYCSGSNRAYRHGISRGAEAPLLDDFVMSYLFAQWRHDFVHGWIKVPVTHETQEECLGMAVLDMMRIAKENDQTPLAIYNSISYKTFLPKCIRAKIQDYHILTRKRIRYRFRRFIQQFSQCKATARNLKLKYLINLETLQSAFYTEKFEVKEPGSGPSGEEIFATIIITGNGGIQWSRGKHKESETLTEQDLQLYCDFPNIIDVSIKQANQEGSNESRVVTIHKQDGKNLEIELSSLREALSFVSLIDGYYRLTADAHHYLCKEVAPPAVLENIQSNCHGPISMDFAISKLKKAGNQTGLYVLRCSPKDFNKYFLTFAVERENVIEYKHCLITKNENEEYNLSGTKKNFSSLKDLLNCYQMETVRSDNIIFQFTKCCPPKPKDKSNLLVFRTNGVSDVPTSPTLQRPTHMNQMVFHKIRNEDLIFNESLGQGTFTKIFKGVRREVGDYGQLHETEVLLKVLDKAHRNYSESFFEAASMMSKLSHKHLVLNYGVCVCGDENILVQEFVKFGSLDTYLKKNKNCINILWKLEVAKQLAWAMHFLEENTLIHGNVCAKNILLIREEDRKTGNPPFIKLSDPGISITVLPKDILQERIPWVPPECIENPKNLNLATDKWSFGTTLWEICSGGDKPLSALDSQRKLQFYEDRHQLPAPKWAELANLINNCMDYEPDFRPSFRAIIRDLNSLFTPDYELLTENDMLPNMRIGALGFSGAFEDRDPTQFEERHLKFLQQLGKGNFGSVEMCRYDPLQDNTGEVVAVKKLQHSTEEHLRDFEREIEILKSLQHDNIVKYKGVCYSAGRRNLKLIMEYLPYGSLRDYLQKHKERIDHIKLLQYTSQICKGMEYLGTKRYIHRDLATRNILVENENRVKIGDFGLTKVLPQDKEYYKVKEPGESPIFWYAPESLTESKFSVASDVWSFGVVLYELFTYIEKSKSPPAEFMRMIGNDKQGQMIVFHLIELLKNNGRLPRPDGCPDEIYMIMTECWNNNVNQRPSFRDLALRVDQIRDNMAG
Text: as §1, §2, §3, §4, §5
(§6) Compounds of Formula I were screened for their ability to inhibit JAK2 using the general enzyme inhibition assay method, in which the assay mixture contained 25 μM (Km app) or 1 mM ATP, 10 μM Omnia® Y7 peptide (Catalog #IVGN KNZ3071C, Invitrogen Corporation, Carlsbad, Calif.) and 5 nM JAK2 in a total volume of 20 μL. JAK2 was purchased from Invitrogen Corporation, Carlsbad, Calif. (catalog #IVGN PV4288).

[4] = molecular target: T4, JAK3 (Homo sapiens, UniProt P52333); assay: JAK3 Inhibition Assay (Omnia kinase fluorescence peptide substrate); conditions: averaged IC50 ranges; 10 μM (Km app) or 1 mM ATP, 2.5 nM JAK3
T4 construct: purchased Invitrogen Corporation, Carlsbad, Calif; IVGN PV4080
T4 sequence (P52333 1-1124): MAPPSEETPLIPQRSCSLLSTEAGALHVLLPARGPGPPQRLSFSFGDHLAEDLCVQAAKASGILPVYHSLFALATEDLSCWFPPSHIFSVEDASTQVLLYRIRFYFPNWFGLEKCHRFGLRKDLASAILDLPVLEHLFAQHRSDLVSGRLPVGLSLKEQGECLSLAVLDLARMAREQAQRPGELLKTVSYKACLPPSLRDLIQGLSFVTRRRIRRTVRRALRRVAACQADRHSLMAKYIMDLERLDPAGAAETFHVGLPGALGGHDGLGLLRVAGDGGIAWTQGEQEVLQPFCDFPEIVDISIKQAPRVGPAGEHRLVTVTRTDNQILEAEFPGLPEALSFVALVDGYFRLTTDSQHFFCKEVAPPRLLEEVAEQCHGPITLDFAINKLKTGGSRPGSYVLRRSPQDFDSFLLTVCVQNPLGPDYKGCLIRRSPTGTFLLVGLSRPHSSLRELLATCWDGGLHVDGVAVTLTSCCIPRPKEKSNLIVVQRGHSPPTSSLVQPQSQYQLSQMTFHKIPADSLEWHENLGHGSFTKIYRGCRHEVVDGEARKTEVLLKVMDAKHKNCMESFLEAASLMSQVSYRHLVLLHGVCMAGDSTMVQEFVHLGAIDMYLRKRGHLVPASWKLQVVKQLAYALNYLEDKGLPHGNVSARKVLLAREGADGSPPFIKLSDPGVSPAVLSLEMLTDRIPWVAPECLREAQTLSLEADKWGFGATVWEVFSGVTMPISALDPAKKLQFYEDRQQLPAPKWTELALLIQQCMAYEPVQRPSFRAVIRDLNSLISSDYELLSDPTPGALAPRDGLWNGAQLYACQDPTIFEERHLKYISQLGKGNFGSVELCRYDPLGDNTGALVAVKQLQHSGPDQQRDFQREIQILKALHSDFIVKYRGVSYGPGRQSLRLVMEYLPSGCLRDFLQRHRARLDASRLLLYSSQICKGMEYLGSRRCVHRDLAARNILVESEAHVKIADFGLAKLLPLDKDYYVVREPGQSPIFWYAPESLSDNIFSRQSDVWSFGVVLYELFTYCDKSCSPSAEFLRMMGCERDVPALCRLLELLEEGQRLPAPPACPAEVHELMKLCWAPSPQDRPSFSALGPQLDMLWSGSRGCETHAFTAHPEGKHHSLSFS
Text: as §1, §2, §3, §4, §5
as §6, with “JAK3” for “JAK2”, “10” for “25”, “2.5” for “5”, “PV4080).” for “PV4288).”

| SMILES | IC50 [1] [nM] | IC50 [2] [nM] | IC50 [3] [nM] | IC50 [4] [nM] |
| --- | --- | --- | --- | --- |
| Cn1cc(-c2cc3nccn3c(-c3cnn(C(CCO)C4CC4)c3)n2)cn1 (stereo not drawn) [Example 13, 3-cyclopropyl-3-(4-(7-(1-methyl-1H-pyrazol-4-yl)imidazo[1,2-c]pyrimidin-5-yl)-1H-pyrazol-1-yl)propan-1-ol] | 100 to 1000 | > 1000 | 100 to 1000 | > 1000 |
| CC(C1CC1)n1cc(-c2nc(-c3cnn(C)c3)cc3nccn23)cn1 (stereo not drawn) [Example 14, 5-(1-(1-Cyclopropylethyl)-1H-pyrazol-4-yl)-7-(1-methyl-1H-pyrazol-4-yl)imidazo[1,2-c]pyrimidine] | 10 to 100 | > 1000 | 100 to 1000 | > 1000 |
| CCCC(C1CC1)n1cc(-c2nc(-c3cnn(C)c3)cc3nccn23)cn1 (stereo not drawn) [Example 15, 5-(1-(1-Cyclopropylbutyl)-1H-pyrazol-4-yl)-7-(1-methyl-1H-pyrazol-4-yl)imidazo[1,2-c]pyrimidine] | 10 to 100 | 100 to 1000 | 10 to 100 | 100 to 1000 |
| Cn1cc(-c2cc3nccn3c(-c3cnn(C4(C)CN(S(=O)(=O)C(F)(F)F)C4)c3)n2)cn1 [Example 16, 5-(1-(3-Methyl-1-(trifluoromethylsulfonyl)azetidin-3-yl)-1H-pyrazol-4-yl)-7-(1-methyl-1H-pyrazol-4-yl)imidazo[1,2-c]pyrimidine] | 10 to 100 | 100 to 1000 | 100 to 1000 | > 1000 |
| Cn1cc(-c2cc3nccn3c(-c3cnn(C(CCF)C4CC4)c3)n2)cn1 (stereo not drawn) [Example 17, 5-(1-(1-Cyclopropyl-3-fluoropropyl)-1H-pyrazol-4-yl)-7-(1-methyl-1H-pyrazol-4-yl)imidazo[1,2-c]pyrimidine] | < 10 | 100 to 1000 | 10 to 100 | 100 to 1000 |
| Cn1cc(-c2cc3nccn3c(-c3cnn(C4(CCF)CN(S(=O)(=O)C(F)(F)F)C4)c3)n2)cn1 [Example 18, 5-(1-(3-(2-Fluoroethyl)-1-(trifluoromethylsulfonyl)azetidin-3-yl)-1H-pyrazol-4-yl)-7-(1-methyl-1H-pyrazol-4-yl)imidazo[1,2-c]pyrimidine] | < 10 | 100 to 1000 | 10 to 100 | 100 to 1000 |
| Cn1cc(-c2cc3nccn3c(-c3cnn(C4(CCF)CN(CC(F)(F)F)C4)c3)n2)cn1 [Example 19, 5-(1-(3-(2-Fluoroethyl)-1-(2,2,2-trifluoroethyl)azetidin-3-yl)-1H-pyrazol-4-yl)-7-(1-methyl-1H-pyrazol-4-yl)imidazo[1,2-c]pyrimidine] | 10 to 100 | > 1000 | 100 to 1000 | > 1000 |
| CCC1(n2cc(-c3nc(-c4cnn(C)c4)cc4nccn34)cn2)CN(S(=O)(=O)C(F)(F)F)C1 [Example 20, 5-(1-(3-ethyl-1-(trifluoromethylsulfonyl)azetidin-3-yl)-1H-pyrazol-4-yl)-7-(1-methyl-1H-pyrazol-4-yl)imidazo[1,2-c]pyrimidine] | 10 to 100 | 100 to 1000 | 10 to 100 | 100 to 1000 |
| CSCCn1cc(-c2nc(-c3cnn(C)c3)cc3nccn23)cn1 [Example 21, 7-(1-methyl-1H-pyrazol-4-yl)-5-(1-(2-(methylthio)ethyl)-1H-pyrazol-4-yl)imidazo[1,2-c]pyrimidine] | 10 to 100 | 100 to 1000 | 10 to 100 | 100 to 1000 |
| Cn1cc(-c2cc3nccn3c(-c3ccn(C4(CCF)CN(CC#N)C4)c3)n2)cn1 [Example 22, 2-(3-(2-fluoroethyl)-3-(3-(7-(1-methyl-1H-pyrazol-4-yl)imidazo[1,2-c]pyrimidin-5-yl)-1H-pyrrol-1-yl)azetidin-1-yl)acetonitrile] | 10 to 100 | 100 to 1000 | 100 to 1000 | 100 to 1000 |
| Cn1cc(-c2cc3nccn3c(-c3ccn([C@H](CCF)[C@H]4CC4(F)F)c3)n2)cn1 [Example 23, 5-(1-((R)-1-((R)-2,2-difluorocyclopropyl)-3-fluoropropyl)-1H-pyrrol-3-yl)-7-(1-methyl-1H-pyrazol-4-yl)imidazo[1,2-c]pyrimidine] | < 10 | 10 to 100 | 10 to 100 | 10 to 100 |
| Cn1cc(-c2cc3nccn3c(-c3ccn([C@@H](CCF)[C@@H]4CC4(F)F)c3)n2)cn1 [Example 24, 5-(1-((S)-1-((S)-2,2-difluorocyclopropyl)-3-fluoropropyl)-1H-pyrrol-3-yl)-7-(1-methyl-1H-pyrazol-4-yl)imidazo[1,2-c]pyrimidine] | < 10 | 10 to 100 | 10 to 100 | 100 to 1000 |
